Data: patent US11331299B2, “Medicinal use of serrulatane diterpenes” (The University of Sydney, priority 2016, dated 2022)
Read-outs that look alike come from different tables or passages of the source.

Test system: 280 human cancer cell lines
Assay: OncoPanel cell proliferation assay (10-day)
Format: cell-based
Settings: for EC50: read-out: Cell Count EC50; for IC50: read-out: Cell Count IC50
[1] = Homo sapiens, 22Rv1, 22Rv1, Prostate
[2] = Homo sapiens, 786-0, 786-O, Kidney
[3] = Homo sapiens, A7, Skin (Melanoma)
[4] = Homo sapiens, A101D, Skin (Melanoma)
[5] = Homo sapiens, A 172, A172, CNS - Glioma
[6] = Homo sapiens, A253, A-253, Head and Neck
[7] = Homo sapiens, A388, Head and Neck
[8] = Homo sapiens, A498, A498, Kidney
[9] = Homo sapiens, A673, A-673, Soft Tissue - Sarcoma
[10] = Homo sapiens, A704, A-704, Kidney
[11] = Homo sapiens, A-375, A375, Skin (Melanoma)
[12] = Homo sapiens, A-427, A427, Lung - NSCLC
[13] = Homo sapiens, A-431, A431, Head and Neck
[14] = Homo sapiens, AN3-CA, AN3 CA, Female GU - Uterus
[15] = Homo sapiens, ARH-77, ARH-77, Myeloma
[16] = Homo sapiens, ASPC1, AsPC-1, Pancreas
[17] = Homo sapiens, AU565, AU565, Breast
[18] = Homo sapiens, BCP-1, BCP-1, Lymphoma
[19] = Homo sapiens, BE(2)-C, BE(2)C, CNS - Neuroblastoma
[20] = Homo sapiens, BFTC-905, BFTC-905, Bladder
[21] = Homo sapiens, BHT-101, BHT-101, Endocrine - Thyroid
[22] = Homo sapiens, BM-1604, BM-1604, Prostate
[23] = Homo sapiens, BPH-1, BPH1, Prostate
[24] = Homo sapiens, BT-20, BT20, Breast

Q: `CC(C)=CCC[C@@H]1C(O)Oc2c(C)cc(O)c3c2[C@H]1CC[C@H]3C` (stereo partly shown) [Compound 2, 5,18-epoxyserrulat-14-en-8,18-diol] was tested. Which “Number of cell types, GI Activity Potent” value (GI50 range 0.03-0.099 μM, of 280 cell types) did it give?
A: 1

Q: What about the “Number of cell types, GI Activity moderately potent” value (GI50 range 0.1-0.99 μM, of 280 cell types) of the same compound?
A: 1

Q: And the “Number of cell types, GI Activity Strong” value (GI50 range 1-2.99 μM, of 280 cell types)?
A: 8

Q: And the “Number of cell types, GI Activity moderately strong” value (GI50 range 3-9.99 μM, of 280 cell types)?
A: 110

Q: What about the “Number of cell types, GI Activity weak” value (GI50 range 10-30.00 μM, of 280 cell types) of the same compound?
A: 118

Q: And the “Number of cell types, GI Activity very weak” value (GI50 range >30 μM, of 280 cell types)?
A: 42

Q: And the GI50 (Homo sapiens, 10 cell lines with potent to strong activity, read-out: GI50)?
A: 0.06 to 2.96 µM

Q: And the EC50 [1]?
A: 11.4 µM

Q: What about the GI50 (Homo sapiens, 22Rv1, 22Rv1, Prostate, read-out: Cell Count GI50) of the same compound?
A: 11.3 µM

Q: And the IC50 [1]?
A: 11.4 µM

Q: And the EC50 (Homo sapiens, 647-V, Bladder)?
A: 11.3 µM

Q: What about the GI50 (Homo sapiens, 647-V, Bladder, read-out: Cell Count GI50) of the same compound?
A: 11.2 µM

Q: And the IC50 (Homo sapiens, 647-V, Bladder)?
A: 11.3 µM

Q: And the EC50 (Homo sapiens, 769-P, Kidney)?
A: 6.95 µM

Q: What about the GI50 (Homo sapiens, 769-P, Kidney, read-out: Cell Count GI50) of the same compound?
A: 6.94 µM

Q: And the IC50 (Homo sapiens, 769-P, Kidney)?
A: 6.95 µM

Q: And the EC50 [2]?
A: 27.9 µM

Q: And the GI50 (Homo sapiens, 786-0, 786-O, Kidney, read-out: Cell Count GI50)?
A: 27.9 µM

Q: What about the IC50 [2] of the same compound?
A: 27.9 µM

Q: And the EC50 (Homo sapiens, 5637, Bladder)?
A: > 30 µM

Q: And the GI50 (Homo sapiens, 5637, Bladder, read-out: Cell Count GI50)?
A: > 30 µM

Q: What about the IC50 (Homo sapiens, 5637, Bladder) of the same compound?
A: > 30 µM

Q: And the EC50 [3]?
A: 5.54 µM

Q: And the GI50 (Homo sapiens, A7, Skin (Melanoma), read-out: Cell Count GI50)?
A: 5.6 µM

Q: What about the IC50 [3] of the same compound?
A: 5.63 µM

Q: And the EC50 [4]?
A: > 30 µM

Q: And the GI50 (Homo sapiens, A101D, Skin (Melanoma), read-out: Cell Count GI50)?
A: > 30 µM

Q: And the IC50 [4]?
A: > 30 µM

Q: And the EC50 [5]?
A: 9.02 µM

Q: What about the GI50 (Homo sapiens, A 172, A172, CNS - Glioma, read-out: Cell Count GI50) of the same compound?
A: 8.93 µM

Q: What about the IC50 [5] of the same compound?
A: 9.02 µM

Q: What about the EC50 [6] of the same compound?
A: 28.5 µM

Q: What about the GI50 (Homo sapiens, A253, A-253, Head and Neck, read-out: Cell Count GI50) of the same compound?
A: 28.7 µM

Q: And the IC50 [6]?
A: 28.7 µM

Q: And the EC50 [7]?
A: 13.5 µM

Q: And the GI50 (Homo sapiens, A388, Head and Neck, read-out: Cell Count GI50)?
A: 13.4 µM

Q: What about the IC50 [7] of the same compound?
A: 13.5 µM

Q: And the EC50 [8]?
A: 13.3 µM

Q: And the GI50 (Homo sapiens, A498, A498, Kidney, read-out: Cell Count GI50)?
A: 13.2 µM

Q: What about the IC50 [8] of the same compound?
A: 13.3 µM

Q: And the EC50 (Homo sapiens, A549, A549, Lung - NSCLC)?
A: 22 µM

Q: What about the GI50 (Homo sapiens, A549, A549, Lung - NSCLC, read-out: Cell Count GI50) of the same compound?
A: 21.9 µM

Q: And the EC50 [9]?
A: 10.8 µM

Q: And the GI50 (Homo sapiens, A673, A-673, Soft Tissue - Sarcoma, read-out: Cell Count GI50)?
A: 11.1 µM

Q: And the IC50 [9]?
A: 11.1 µM

Q: What about the EC50 [10] of the same compound?
A: > 30 µM

Q: And the GI50 (Homo sapiens, A704, A-704, Kidney, read-out: Cell Count GI50)?
A: > 30 µM

Q: And the IC50 [10]?
A: > 30 µM

Q: What about the EC50 [11] of the same compound?
A: 6.45 µM

Q: And the GI50 (Homo sapiens, A-375, A375, Skin (Melanoma), read-out: Cell Count GI50)?
A: 6.44 µM

Q: And the IC50 [11]?
A: 6.45 µM

Q: And the EC50 [12]?
A: 11.2 µM

Q: And the GI50 (Homo sapiens, A-427, A427, Lung - NSCLC, read-out: Cell Count GI50)?
A: 11.2 µM

Q: And the IC50 [12]?
A: 11.2 µM

Q: What about the EC50 [13] of the same compound?
A: > 30 µM

Q: And the GI50 (Homo sapiens, A-431, A431, Head and Neck, read-out: Cell Count GI50)?
A: > 30 µM

Q: And the IC50 [13]?
A: > 30 µM

Q: And the EC50 (Homo sapiens, ACHN, Kidney)?
A: 8.79 µM

Q: What about the GI50 (Homo sapiens, ACHN, Kidney, read-out: Cell Count GI50) of the same compound?
A: 8.76 µM

Q: What about the IC50 (Homo sapiens, ACHN, Kidney) of the same compound?
A: 8.79 µM

Q: What about the EC50 (Homo sapiens, AGS, Stomach) of the same compound?
A: 4.69 µM

Q: What about the GI50 (Homo sapiens, AGS, Stomach, read-out: Cell Count GI50) of the same compound?
A: 4.69 µM

Q: What about the IC50 (Homo sapiens, AGS, Stomach) of the same compound?
A: 4.69 µM

Q: And the EC50 [14]?
A: 11.3 µM

Q: And the GI50 (Homo sapiens, AN3-CA, AN3 CA, Female GU - Uterus, read-out: Cell Count GI50)?
A: 11.1 µM

Q: And the IC50 [14]?
A: 11.3 µM

Q: What about the EC50 [15] of the same compound?
A: 9.5 µM

Q: What about the GI50 (Homo sapiens, ARH-77, ARH-77, Myeloma, read-out: Cell Count GI50) of the same compound?
A: 9.57 µM

Q: And the IC50 [15]?
A: 9.6 µM

Q: What about the EC50 [16] of the same compound?
A: 14.1 µM

Q: And the GI50 (Homo sapiens, ASPC1, AsPC-1, Pancreas, read-out: Cell Count GI50)?
A: 13.8 µM

Q: And the IC50 [16]?
A: 14.1 µM

Q: And the EC50 [17]?
A: 6.4 µM

Q: And the GI50 (Homo sapiens, AU565, AU565, Breast, read-out: Cell Count GI50)?
A: 6.29 µM

Q: And the IC50 [17]?
A: 6.4 µM

Q: What about the EC50 (Homo sapiens, BC-1, Lymphoma) of the same compound?
A: 7.95 µM

Q: And the GI50 (Homo sapiens, BC-1, Lymphoma, read-out: Cell Count GI50)?
A: 7.93 µM

Q: What about the IC50 (Homo sapiens, BC-1, Lymphoma) of the same compound?
A: 7.95 µM

Q: What about the EC50 [18] of the same compound?
A: 8.48 µM

Q: What about the GI50 (Homo sapiens, BCP-1, BCP-1, Lymphoma, read-out: Cell Count GI50) of the same compound?
A: 8.4 µM

Q: And the IC50 [18]?
A: 8.48 µM

Q: And the EC50 [19]?
A: 6.91 µM

Q: What about the GI50 (Homo sapiens, BE(2)-C, BE(2)C, CNS - Neuroblastoma, read-out: Cell Count GI50) of the same compound?
A: 7.48 µM

Q: And the IC50 [19]?
A: 7.52 µM

Q: What about the EC50 [20] of the same compound?
A: 8.03 µM

Q: What about the GI50 (Homo sapiens, BFTC-905, BFTC-905, Bladder, read-out: Cell Count GI50) of the same compound?
A: 8.01 µM

Q: And the IC50 [20]?
A: 8.03 µM

Q: What about the EC50 [21] of the same compound?
A: 14 µM

Q: And the GI50 (Homo sapiens, BHT-101, BHT-101, Endocrine - Thyroid, read-out: Cell Count GI50)?
A: 13.9 µM

Q: What about the IC50 [21] of the same compound?
A: 14 µM

Q: And the EC50 [22]?
A: 19.1 µM

Q: And the GI50 (Homo sapiens, BM-1604, BM-1604, Prostate, read-out: Cell Count GI50)?
A: 18.9 µM

Q: And the IC50 [22]?
A: 19.1 µM

Q: What about the EC50 [23] of the same compound?
A: > 30 µM

Q: What about the GI50 (Homo sapiens, BPH-1, BPH1, Prostate, read-out: Cell Count GI50) of the same compound?
A: > 30 µM

Q: And the IC50 [23]?
A: > 30 µM

Q: What about the EC50 [24] of the same compound?
A: 12.2 µM

Q: And the GI50 (Homo sapiens, BT-20, BT20, Breast, read-out: Cell Count GI50)?
A: 12.3 µM

Q: What about the IC50 [24] of the same compound?
A: 12.7 µM

Q: What about the EC50 (Homo sapiens, BT-474, BT474, Breast) of the same compound?
A: > 30 µM
